Source: ChEMBL document CHEMBL1156190, “Virtual screening for the identification of novel nonsteroidal glucocorticoid modulators” (J Med Chem, 2010)
Calls of active or inactive are those of the source. No cut-off for these calls is given here.

Tests used:
[1] = molecular target: T1, Glucocorticoid receptor (Homo sapiens, UniProt P04150); assay: Displacement of [3H]DEX from human glucocorticoid receptor
T1 sequence (P04150 whole entry): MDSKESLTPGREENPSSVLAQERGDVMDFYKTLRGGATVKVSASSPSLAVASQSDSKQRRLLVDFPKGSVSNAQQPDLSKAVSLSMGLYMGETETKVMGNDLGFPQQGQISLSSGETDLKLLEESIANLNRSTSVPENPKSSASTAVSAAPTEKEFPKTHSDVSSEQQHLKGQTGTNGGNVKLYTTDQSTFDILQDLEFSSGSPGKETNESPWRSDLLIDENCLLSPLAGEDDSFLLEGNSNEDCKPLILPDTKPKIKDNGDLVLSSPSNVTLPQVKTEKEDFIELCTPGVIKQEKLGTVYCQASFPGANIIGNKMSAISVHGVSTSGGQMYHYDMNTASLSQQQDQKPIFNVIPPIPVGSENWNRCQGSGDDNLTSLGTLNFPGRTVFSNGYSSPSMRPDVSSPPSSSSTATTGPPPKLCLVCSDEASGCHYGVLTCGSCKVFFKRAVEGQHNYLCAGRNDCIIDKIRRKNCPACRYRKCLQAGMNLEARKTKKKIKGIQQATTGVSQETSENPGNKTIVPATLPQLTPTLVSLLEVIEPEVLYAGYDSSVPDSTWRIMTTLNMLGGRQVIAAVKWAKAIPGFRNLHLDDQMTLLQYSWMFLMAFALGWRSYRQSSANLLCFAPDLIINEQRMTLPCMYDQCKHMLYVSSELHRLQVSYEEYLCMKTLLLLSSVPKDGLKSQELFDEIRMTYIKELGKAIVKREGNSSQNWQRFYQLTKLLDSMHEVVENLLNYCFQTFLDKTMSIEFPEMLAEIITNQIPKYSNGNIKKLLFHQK

[2] = molecular target: T2, Glucocorticoid receptor (Homo sapiens) (UniProt P04150); assay: Displacement of fluoromone from human glucocorticoid receptor LBD at 10 uM assessed as reduction of maximum polarization by fluorescence polarization assay relative to control; set-up: scale not given: the % may be the effect or the level left
T2 sequence (whole entry): T1 sequence (P04150 whole entry)

[3] = molecular target: T3, Estrogen receptor (Homo sapiens) (UniProt P03372); assay: Displacement of fluoromone from human recombinant ERalpha assessed as reduction of maximum polarization by fluorescence polarization assay
T3 sequence (whole entry): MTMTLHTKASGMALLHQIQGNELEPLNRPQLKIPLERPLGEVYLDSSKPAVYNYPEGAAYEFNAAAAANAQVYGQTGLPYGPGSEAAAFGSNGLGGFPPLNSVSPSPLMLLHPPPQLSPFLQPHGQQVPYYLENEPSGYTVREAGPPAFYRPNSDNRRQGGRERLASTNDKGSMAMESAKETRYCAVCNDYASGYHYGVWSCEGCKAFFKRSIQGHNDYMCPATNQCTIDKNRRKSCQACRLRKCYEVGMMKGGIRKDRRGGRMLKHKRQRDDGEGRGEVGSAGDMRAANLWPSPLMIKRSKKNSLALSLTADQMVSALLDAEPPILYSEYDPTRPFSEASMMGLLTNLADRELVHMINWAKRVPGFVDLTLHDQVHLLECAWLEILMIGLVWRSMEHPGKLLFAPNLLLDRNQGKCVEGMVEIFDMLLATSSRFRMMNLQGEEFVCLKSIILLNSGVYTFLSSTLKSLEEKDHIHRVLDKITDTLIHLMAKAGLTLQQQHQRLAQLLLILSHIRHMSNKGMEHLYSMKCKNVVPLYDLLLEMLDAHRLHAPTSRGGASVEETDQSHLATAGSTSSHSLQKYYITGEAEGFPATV

[4] = molecular target: T4, Peroxisome proliferator-activated receptor gamma (Homo sapiens) (UniProt P37231); assay: Displacement of fluoromone from human recombinant PPARgamma assessed as reduction of maximum polarization by fluorescence polarization assay
T4 sequence (whole entry): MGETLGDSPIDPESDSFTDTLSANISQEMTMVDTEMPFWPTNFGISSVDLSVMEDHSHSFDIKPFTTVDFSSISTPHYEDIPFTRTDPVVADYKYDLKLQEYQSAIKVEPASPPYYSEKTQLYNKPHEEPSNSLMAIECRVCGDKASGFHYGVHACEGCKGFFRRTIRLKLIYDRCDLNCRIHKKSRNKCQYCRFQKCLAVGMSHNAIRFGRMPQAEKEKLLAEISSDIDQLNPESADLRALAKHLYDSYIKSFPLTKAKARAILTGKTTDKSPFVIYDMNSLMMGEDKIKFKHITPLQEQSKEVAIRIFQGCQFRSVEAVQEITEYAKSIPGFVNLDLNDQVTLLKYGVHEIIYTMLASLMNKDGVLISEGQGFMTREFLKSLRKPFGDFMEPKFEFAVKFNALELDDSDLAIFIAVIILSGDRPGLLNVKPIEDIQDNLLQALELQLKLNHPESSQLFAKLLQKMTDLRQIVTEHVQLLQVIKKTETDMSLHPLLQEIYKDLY

[5] = molecular target: T2, Glucocorticoid receptor (Homo sapiens); assay: Transrepression activity at glucocorticoid receptor in human A549 cells assessed as inhibition of IL-1-alpha-induced IL6 expression at 10 uM after 24 hrs by ELISA; format: cell-based
[6] = molecular target: Estrogen receptor beta (Homo sapiens) (UniProt Q92731); assay: Displacement of fluoromone from human recombinant ERbeta assessed as reduction of maximum polarization by fluorescence polarization assay
Chain of Estrogen receptor beta (Homo sapiens) (Q92731 whole entry): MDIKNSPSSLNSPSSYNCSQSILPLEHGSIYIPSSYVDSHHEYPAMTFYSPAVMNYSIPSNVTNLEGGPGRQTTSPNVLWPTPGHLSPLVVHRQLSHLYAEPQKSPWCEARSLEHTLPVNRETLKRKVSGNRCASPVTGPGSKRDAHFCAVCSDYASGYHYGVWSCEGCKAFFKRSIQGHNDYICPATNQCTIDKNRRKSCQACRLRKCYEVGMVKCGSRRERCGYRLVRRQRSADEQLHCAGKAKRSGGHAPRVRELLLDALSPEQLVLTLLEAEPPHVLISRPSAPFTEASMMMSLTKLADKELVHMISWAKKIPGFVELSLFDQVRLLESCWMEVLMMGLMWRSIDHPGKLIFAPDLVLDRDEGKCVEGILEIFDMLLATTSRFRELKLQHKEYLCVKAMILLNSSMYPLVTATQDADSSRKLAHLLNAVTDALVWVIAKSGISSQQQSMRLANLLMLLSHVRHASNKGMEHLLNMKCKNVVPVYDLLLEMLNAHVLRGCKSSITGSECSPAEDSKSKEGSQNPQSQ

SMILES	Ki [1] [nM]	also measured
C#COc1ccc2c(c1OC)-c1ccc3c(c1[C@H](CC=C)O2)C(C)=CC(C)(C)N3	4.2	
CC#C[C@@]1(O)CC[C@@]2(Cc3ccccc3)c3ccc(C(=O)NCc4ccncc4)cc3CC[C@@H]2C1	2	
COc1ccc2c(c1)-c1ccc3c(c1[C@H](c1ccccc1)O2)C(C)=CC(C)(C)N3	18	
C=CC[C@@H]1Oc2ccc(OC#N)c(OC)c2-c2ccc3c(c21)C(C)=CC(C)(C)N3	51	
COc1c(Br)cc2ccccc2c1-c1c(OC)c(CO)cc2ccccc12		Activity [2]: 50%
C#Cc1cccc2c1-c1ccc3c(c1[C@H](CC=C)O2)C(C)=CC(C)(C)N3	6.9	
O=C1CC(c2ccccc2)CC2=C1C(c1cc(Cl)ccc1Cl)Nc1ccccc1N2 (centres undefined)		Activity [3]: inactive; Activity [2]: 65%; Activity [4]: inactive; inhibition [5]: inactive; Activity [6]: inactive

Continued, in another order:

Ki [1] [nM]	SMILES	also measured
4110	C=C1C(C)CCC(C)(C)[C@@H]1Cc1cc(OC)c(Br)cc1OC(C)=O (some centres undefined)	
3210	C=C1CCC(Br)C(C)(C)[C@@H]1Cc1cc(OC)c(Br)cc1O (some centres undefined)	
2470	C=C1CCC(Br)C(C)(C)[C@H]1Cc1cc(OC)c(Br)cc1O (some centres undefined)	
